Experimental findings from patent publication US9018258B2, “Substituted 1-benzylcycloalkylcarboxylic acids and the use thereof” (Bayer Intellectual Property GmbH, priority 2010, dated 2015) are described below.

In assay [1] the target is T1, soluble guanylate cyclase (sGC) (Rattus norvegicus, UniProt P20595).
T1 construct: made in house; host or cells: Sf9 insect cells (baculovirus)
Briefly: Stimulation of sGC enzyme activity (PPi detection, luciferase). Format: biochemical. The conditions noted are these: sGC enzyme in vitro; for pEC50: read-out: EC50 (concentration at 50% of maximum efficacy), activating action at the sGC enzyme. On the procedure:
Soluble guanylate cyclase (sGC) converts on stimulation GTP into cGMP and pyrophosphate (PPi). PPi is detected with the aid of the assay described below. The signal produced in the assay increases as the reaction progresses and serves as a measure of the sGC enzyme activity under the given stimulation.
To carry out the assay, 29 μl of enzyme solution [0-10 nM soluble guanylate cyclase (prepared according to Honicka et al., J. Mol. Med. 77, 14-23 (1999)) in 50 mM TEA, 2 mM MgCl2, 0.1% BSA (fraction V), 0.005% Brij®, pH 7.5] are initially introduced into a microplate, and 1 μl of the substance to be tested (as a serially diluted solution in DMSO) is added. The mixture is incubated at room temperature for 10 min. Then 20 μl of detection mix [1.2 nM Firefly Luciferase (Photinus pyralis luciferase, Promega), 29 μM dehydroluciferin (prepared according to Bitler & McElroy, Arch. Biochem. Biophys. 72, 358 (1957)), 122 μM luciferin (Promega), 153 μM ATP (Sigma) and 0.4 mM DTT (Sigma) in 50 mM TEA, 2 mM MgCl2, 0.1% BSA (fraction V), 0.005% Brij®, pH 7.5] are added. The enzyme reaction is started by adding 20 μl of substrate solution [1.25 mM guanosine 5′-triphosphate (Sigma) in 50 mM TEA, 2 mM MgCl2, 0.1% BSA (fraction V), 0.005% Brij®, pH 7.5] and measured continuously in a luminometer. The extent of the stimulation by the substance to be tested can be determined relative to the signal of the unstimulated reaction.
The activation of haem-free guanylate cyclase is examined by addition of 25 μM of 1H-1,2,4-oxadiazolo[4,3-a]quinoxalin-1-one (ODQ) to the enzyme solution and subsequent incubation for 30 minutes and compared to the stimulation of the native enzyme.

The target of assay [2] is T2, sGC (Rattus norvegicus, UniProt P20595).
T2 construct: expressed in transfected cells; host or cells: CHO reporter cell
T2 sequence (P19686 whole entry partner): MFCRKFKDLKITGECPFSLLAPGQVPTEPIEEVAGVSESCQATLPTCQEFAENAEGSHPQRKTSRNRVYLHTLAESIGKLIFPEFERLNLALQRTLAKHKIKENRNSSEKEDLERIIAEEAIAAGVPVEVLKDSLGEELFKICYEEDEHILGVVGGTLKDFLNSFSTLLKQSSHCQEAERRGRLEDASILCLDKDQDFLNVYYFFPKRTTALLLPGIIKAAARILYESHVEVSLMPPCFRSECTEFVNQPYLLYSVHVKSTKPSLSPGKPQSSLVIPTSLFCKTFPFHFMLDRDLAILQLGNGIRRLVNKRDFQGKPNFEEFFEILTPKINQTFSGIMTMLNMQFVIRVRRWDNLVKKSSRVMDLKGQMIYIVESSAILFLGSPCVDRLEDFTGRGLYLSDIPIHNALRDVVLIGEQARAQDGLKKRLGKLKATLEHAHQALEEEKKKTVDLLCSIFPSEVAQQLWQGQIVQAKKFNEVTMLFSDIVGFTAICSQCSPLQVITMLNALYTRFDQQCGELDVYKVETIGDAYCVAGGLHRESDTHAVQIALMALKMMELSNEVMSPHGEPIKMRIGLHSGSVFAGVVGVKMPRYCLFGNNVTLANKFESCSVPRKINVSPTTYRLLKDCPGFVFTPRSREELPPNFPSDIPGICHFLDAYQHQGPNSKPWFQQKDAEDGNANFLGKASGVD
T2 sequence (P20595 whole entry): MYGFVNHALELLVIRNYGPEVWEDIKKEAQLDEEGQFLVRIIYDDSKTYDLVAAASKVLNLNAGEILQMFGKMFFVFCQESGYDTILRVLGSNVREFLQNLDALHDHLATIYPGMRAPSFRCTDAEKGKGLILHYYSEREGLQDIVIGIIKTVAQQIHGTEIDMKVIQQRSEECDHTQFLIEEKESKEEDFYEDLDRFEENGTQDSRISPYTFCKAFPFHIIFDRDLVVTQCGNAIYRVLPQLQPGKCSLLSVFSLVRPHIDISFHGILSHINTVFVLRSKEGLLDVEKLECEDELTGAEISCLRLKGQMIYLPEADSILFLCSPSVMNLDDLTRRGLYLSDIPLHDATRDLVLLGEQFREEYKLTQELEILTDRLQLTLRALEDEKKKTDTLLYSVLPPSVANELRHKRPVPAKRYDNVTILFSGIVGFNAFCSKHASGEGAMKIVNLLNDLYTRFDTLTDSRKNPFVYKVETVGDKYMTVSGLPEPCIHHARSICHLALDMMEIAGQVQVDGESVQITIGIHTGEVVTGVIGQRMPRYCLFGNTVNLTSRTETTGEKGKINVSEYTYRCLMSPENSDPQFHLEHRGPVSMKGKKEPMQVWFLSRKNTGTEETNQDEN
Briefly: Action at a recombinant guanylate cyclase reporter cell line (CHO reporter cell). In kind it is cell-based. The conditions noted are these: CHO reporter cell in vitro. Here is the method:
The cellular action of the compounds according to the invention is determined at a recombinant guanylate cyclase reporter cell line, as described in F. Wunder et al., Anal. Biochem. 339, 104-112 (2005).

Assay [3] concerns the target T3, GAL4-PPARγ (Homo sapiens, UniProt P37231).
T3 construct: PPARγ (amino acids 203-506); expressed in transfected cells
T3 sequence (P37231 203-505 limits assumed): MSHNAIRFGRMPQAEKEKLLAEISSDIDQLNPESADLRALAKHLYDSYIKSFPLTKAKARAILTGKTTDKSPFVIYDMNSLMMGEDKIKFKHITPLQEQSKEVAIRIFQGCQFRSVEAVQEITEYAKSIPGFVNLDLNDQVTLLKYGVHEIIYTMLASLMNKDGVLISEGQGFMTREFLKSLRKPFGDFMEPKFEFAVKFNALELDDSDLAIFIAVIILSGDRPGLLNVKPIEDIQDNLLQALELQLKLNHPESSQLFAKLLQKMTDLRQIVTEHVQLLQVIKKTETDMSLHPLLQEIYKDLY
Kind of assay: Cellular PPAR transactivation assay, GAL4-PPARγ chimera in CHO-K1 cells. In kind it is cell-based. Particulars: for Emax: CHO-K1, maximum effect relative to reference compound (Example 73 of EP 1 452 521-A1 = 100%), read-out: PPARγ efficacy; for pEC50: CHO-K1 cells, luciferase reporter, 6 h stimulation. An excerpt: (§1) A cellular assay is used to test for potentially activating properties of the compounds according to the invention with respect to the three human isoforms of the peroxisome proliferator-activated receptors (PPARα, PPARγ and PPARδ).
(§2) Since mammalian cells contain different endogenous nuclear receptors which may complicate an unambiguous interpretation of the results, an established chimera system is used in which the respective ligand binding domain of the human PPAR isoforms is fused to the DNA binding domain of the yeast transcription factor GAL4. The resulting GAL4-PPARα, γ and δ chimeras are co-transfected and stably expressed in CHO cells having a reporter construct.
(§3) The GAL4-PPAR expression constructs contain the ligand binding domain of PPARα (amino acids 167-468), PPARγ (amino acids 203-506) and PPARδ (amino acids 138-442) which are PCR-amplified and cloned into the vector pcDNA3.1. The respective expression vectors already contain the GAL4 DNA binding domain (amino acids 1-147) of the vector pFC2-dbd (Stratagene). The reporter construct, which contains five copies of the GAL4 binding site upstream of a thymidine kinase promoter, expresses firefly luciferase (Photinus pyralis) following activation and binding of GAL4-PPARα, γ or δ.
(§4) The day before the test, CHO-K1 cells (chinese hamster ovary; ATCC CCL-61) each stably expressing one of the above-described GAL4-PPAR chimeras and the luciferase reporter gene construct are sown in medium [Optimem (GIBCO) with 2% activated carbon-purified foetal calf serum (Hyclone), 1.35 mM sodium pyruvate (GIBCO) and 0.2% sodium bicarbonate (GIBCO)] in a density of 1×10^3 cells in 96-well microtitre plates (Greiner) and kept in a cell incubator (96% atmospheric humidity, 5% v/v CO2, 37° C.). On the test day, the substances to be tested are taken up in the medium mentioned above, but without addition of calf serum, and added in various concentrations to the cells. After a stimulation period of 6 h, the luciferase activity is measured using a video camera. The relative light units measured give, as a function of the substance concentration, a sigmoidal stimulation curve. The EC50 values are calculated using the computer programme GraphPad PRISM (Version 3.02). The maximum effect of a test substance in the respective PPAR assay is determined as efficacy in percent in comparison to an appropriate reference compound whose maximum effect is defined as 100%.
(§5) The reference compound selected here was the compound 2-(3-{[(2-chloro-4-propoxybenzoyl)-amino]methyl}-4-ethoxybenzyl)tetrahydrofuran-2-carboxylic acid [Example 73 of EP 1 452 521-A1] which is described in the prior art as a potent pan-PPAR agonist.
(In general: A reporter such as luciferase makes a cellular process visible.)

The target in assay [4] is T4, GAL4-PPARα (Homo sapiens, UniProt Q07869).
T4 construct: expressed in transfected cells
T4 sequence (Q07869 167-468): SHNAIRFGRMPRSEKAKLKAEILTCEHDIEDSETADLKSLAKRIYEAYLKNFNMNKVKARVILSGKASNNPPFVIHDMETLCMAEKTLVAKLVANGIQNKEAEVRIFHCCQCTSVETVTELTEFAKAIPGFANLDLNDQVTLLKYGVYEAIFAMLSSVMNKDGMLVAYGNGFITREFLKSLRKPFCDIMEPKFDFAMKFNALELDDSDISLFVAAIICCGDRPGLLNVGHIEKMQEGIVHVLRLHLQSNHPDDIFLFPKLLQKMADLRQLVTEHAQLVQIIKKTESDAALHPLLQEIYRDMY
Kind of assay: Cellular PPAR transactivation assay, GAL4-PPARα chimera in CHO-K1 cells. Format: cell-based. Particulars: for Emax: CHO-K1, maximum effect relative to reference compound (Example 73 of EP 1 452 521-A1 = 100%), read-out: PPARα efficacy; for pEC50: CHO-K1 cells, luciferase reporter, 6 h stimulation.
From the text: as §1, §2, §3, §4, §5

For assay [5], the target named is T5, GAL4-PPARδ (Homo sapiens, UniProt Q03181).
T5 construct: PPARδ (amino acids 138-442); expressed in transfected cells
T5 sequence (Q03181 138-441 limits assumed): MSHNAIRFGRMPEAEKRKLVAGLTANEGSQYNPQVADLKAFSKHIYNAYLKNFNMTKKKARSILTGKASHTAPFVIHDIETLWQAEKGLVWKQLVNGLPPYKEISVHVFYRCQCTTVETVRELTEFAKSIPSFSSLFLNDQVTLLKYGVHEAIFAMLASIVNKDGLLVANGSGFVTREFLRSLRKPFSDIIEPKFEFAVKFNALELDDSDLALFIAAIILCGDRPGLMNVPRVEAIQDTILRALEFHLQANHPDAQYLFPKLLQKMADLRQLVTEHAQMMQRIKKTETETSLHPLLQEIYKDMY
Briefly: Cellular PPAR transactivation assay, GAL4-PPARδ chimera in CHO-K1 cells. In kind it is cell-based. The conditions noted are these: for Emax: CHO-K1, maximum effect relative to reference compound (Example 73 of EP 1 452 521-A1 = 100%), read-out: PPARδ efficacy; for pEC50: CHO-K1 cells, luciferase reporter, 6 h stimulation.
From the text: as §1, §2, §3, §4, §5

Molecules are shown by their SMILES. pEC50: −log10 of the molar value.

T1 sequence (P19686 whole entry partner): as the sequence (P19686 whole entry partner) above
T1 sequence (P20595 whole entry): as the sequence (P20595 whole entry) above

Regarding `O=C(Nc1cc(CC2(C(=O)O)CC2)ccc1F)[C@H](c1ccc(Cl)cc1)C1CCCC1` (single isomer, unassigned) [Example 62], in assay [1], the “MEC (minimum effective concentration), activating action at the sGC enzyme” value (shortened to “MEC … at the sGC enzyme”) is 2.2 nM and the pEC50 is 7.52. In assay [2], the “MEC (minimum effective concentration), sGC-activating activity in the CHO reporter cell” value (shortened to “MEC … in the CHO reporter cell”) is on record as 1 nM.

With `O=C(Nc1cc(CC2(C(=O)O)CC2)ccc1Cl)C(c1ccc(Cl)cc1)C1CCC(F)(F)C1` (single isomer, unassigned) [Example 73, 1-(4-Chloro-3-{[(4-chlorophenyl)(3,3-difluorocyclopentyl)acetyl]amino}benzyl)cyclopropane-carboxylic acid], the “MEC … at the sGC enzyme” value in assay [1] was 3.8 nM. In addition, the pEC50 in assay [1] is 7.08; in assay [3], below 5.00; in assay [4], below 5.00; in assay [5], below 5.00. Further, the Emax in assay [3], in assay [4] and in assay [5] was 0% throughout. For the same compound, in assay [2], the “MEC … in the CHO reporter cell” value is listed as 1.7 nM.

As for `CC(C(C(=O)Nc1cc(CC2(C(=O)O)CC2)ccc1Cl)c1ccc(CC(F)(F)F)cc1)C(F)(F)F` (single isomer, unassigned) [Example 82, 1-[4-Chloro-3-({4,4,4-trifluoro-3-methyl-2-[4-(2,2,2-trifluoroethyl)phenyl]butanoyl}amino)-benzyl]cyclopropanecarboxylic acid], the “MEC … at the sGC enzyme” value in assay [1] is recorded as 3.4 nM. The pEC50 in assay [1] was 7.36; in assay [3], 5.64; in assay [4], below 5.00; in assay [5], below 5.00. Further, the figures for the Emax in assay [3], in assay [4] and in assay [5] were 20%, 0% and 0%, respectively. The “MEC … in the CHO reporter cell” value in assay [2] is on record as 1.7 nM.

Regarding `[2H]C([2H])([2H])OC(c1ccc(Cl)c(NC(=O)[C@H](c2ccc(Cl)cc2)[C@@H](C)C(F)(F)F)c1)C1(C(=O)O)CCC1` (single isomer, unassigned) [Example 105], the “MEC … at the sGC enzyme” value in assay [1] amounted to 36 nM. Further, the pEC50 is 6.62 in assay [1], below 5.00 in assay [4] and below 5.00 in assay [5]. Besides, the Emax in assay [3] turned out to be 10%; in assay [4], 0%; in assay [5], 0%. Moreover, the “MEC … in the CHO reporter cell” value in assay [2] is recorded as 3 nM.

As to `COC(c1ccc(Cl)c(NC(=O)[C@H](c2ccc(Cl)cc2)[C@@H](C)C(F)(F)F)c1)C1(C(=O)O)CCC1` (single isomer, unassigned) [Example 107], the “MEC … at the sGC enzyme” value in assay [1] worked out at 22 nM. Further, the pEC50 in assay [1] is 6.48; in assay [3], 5.70; in assay [4] it was below 5.00; in assay [5], below 5.00. Moreover, the results for the Emax in assay [3], in assay [4] and in assay [5] were 10%, 0% and 0%, respectively. For the same compound, in assay [2], the “MEC … in the CHO reporter cell” value is given as 3 nM.

For `O=C(Nc1cc(CC2(C(=O)O)CC2)ccc1F)[C@H](c1ccc(Cl)cc1)C1CCCC1(F)F` (single isomer, unassigned; (+)) [Example 68], in assay [1], the “MEC … at the sGC enzyme” value was 2.6 nM. The pEC50 in assay [1] was 7.35; in assay [3], below 5.00; in assay [4], below 5.00; in assay [5], below 5.00. Also, the Emax in assay [3], in assay [4] and in assay [5] was 0% throughout. In addition, the “MEC … in the CHO reporter cell” value in assay [2] is reported as 1 nM.

With `C[C@H]([C@H](C(=O)Nc1cc(CC2(C(=O)O)CC2)ccc1Cl)c1ccc(C(C)(C)C(F)(F)F)cc1)C(F)(F)F` [Example 44, 1-[4-chloro-3-({(2S,3R)-4,4,4-trifluoro-3-methyl-2-[4-(1,1,1-trifluoro-2-methylpropan-2-yl)phenyl]-butanoyl}amino)benzyl]cyclopropanecarboxylic acid], the Emax in assay [3], in assay [4] and in assay [5] was 0% in each case. For the same compound, the pEC50 in assay [3], in assay [4] and in assay [5] was below 5.00 in each case. Further, the “MEC … in the CHO reporter cell” value in assay [2] is 0.3 nM.
